AC50, IC50 and EC50 data for 8 compounds are collected here from ChEMBL document CHEMBL1201862, “PubChem BioAssay data set” (2004).

What is called AC50 is the midpoint of the concentration-response curve, whichever way the signal moves.

Active and inactive are the calls of the source.

A short description of test [1]: Shn3 3'UTR reporter inhibitors, dose response, cell-based, Clone20 osteoblasts, firefly luciferase, cherry-picked (AID 624132).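 Also: firefly luciferase luminescence from reporter carrying the Shn3 3'UTR in osteoblasts.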 It counts as functional.
Test [2] in a line: HepG2 cell cytotoxicity, dose response, cytotoxicity control for Shn3 inhibitor project, CellTiter-Glo, cherry-picked (AID 624134). It counts as functional, cell-based. (ATP-based viability assays read luminescence as a measure of living cells.)
The nature of test [3]: control 3'UTR Renilla luciferase suppression, dose response, counter-screen for Shn3 inhibitor project, cell-based, Clone20-Shn3RL, cherry-picked (AID 624133). It counts as functional. (In general: The purpose of a counterscreen is to sort out artefacts and off-target activity.)
A short description of test [4]: reduction of Shn3 3'UTR firefly luciferase signal, dose response, Schnurri-3 inhibitor project, cell-based, Clone20 osteoblasts, cherry-pick, set 2 (AID 720490).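 Also: actives lower the luminescence signal as inhibitors.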 Format: functional.
A short description of test [5]: inhibitors of control Renilla luciferase reporter, dose response, counter-screen for Shn3 3'UTR targeting project, Clone20-Shn3RL cells, dual-Glo, cherry-pick, set 2 (AID 720724). Format: functional, cell-based. As to conditions: Dual-Go Shn3RL. Background: In a reporter assay the amount or activity of a reporter protein is the signal.
Test [6] addresses T1, Sentrin-specific protease 1 (Homo sapiens, UniProt Q9P0U3). As to the kind of experiment: potency of human SENP1 inhibitors, dose response, biochemical, kinetic FRET (AID 651697). Format: functional. The conditions noted are these: read-out: IC50_Mean.
Test [7] concerns the target T1, Sentrin-specific protease 1. Briefly: Dose response confirmation of small molecule inhibitors of the catalytic domain of the SUMO protease, SENP1 in a FRET assay. Format: functional. The conditions noted are these: read-out: IC50_Mean.
A short description of test [8]: A549 cell cytotoxicity, dose response, cytotoxicity control, plate reader, cherry-pick, antagonist series (AID 743412). It counts as functional, cell-based.
Test [9] is described as follows: HepG2 cell cytotoxicity, dose response, cytotoxicity control, plate reader, cherry-pick, antagonist series (AID 743416). Format: functional, cell-based.
Test [10] in a line: LGR2 antagonists, dose response, cell-based, HEK293, CRE-luciferase reporter, cherry pick, set 2 (AID 743343).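 Also: transfected cells were stimulated with diluted bursicon conditioned medium after compound addition.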 It counts as functional.
A short description of test [11]: HepG2 cell cytotoxicity, dose response, cytotoxicity control, ATP luminescence, cherry-pick, activator set 2 (AID 1053143). Format: functional, cell-based.
Test [12] is described as follows: MC4R antagonists, dose response, counter-screen for LGR2 antagonist project, cell-based, plate reader, cherry pick (AID 743444).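 Also: transfected HEK 293 cells stimulated with alpha-MSH peptide; potency of inhibitors of the alpha-MSH evoked signal.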 Format: functional.
Test [13] in a line: HEK293 cell cytotoxicity, dose response, cytotoxicity control, plate reader, cherry-picked samples (AID 743446). Format: functional, cell-based.
For test [14], the target named is T2, Low molecular weight phosphotyrosine protein phosphatase (Homo sapiens, UniProt P24666).
T2 sequence (P24666 whole entry): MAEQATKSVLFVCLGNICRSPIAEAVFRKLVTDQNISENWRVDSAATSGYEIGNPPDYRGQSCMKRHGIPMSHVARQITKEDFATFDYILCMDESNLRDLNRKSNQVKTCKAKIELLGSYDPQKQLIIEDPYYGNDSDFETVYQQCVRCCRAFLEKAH
It counts as functional. As to conditions: read-out: IC50_Mean.

For test [15], the target named is T2, Low molecular weight phosphotyrosine protein phosphatase. Format: functional. As to conditions: read-out: IC50_Mean. The source holds these as a separate data set.
For test [16], the target named is Photoreceptor-specific nuclear receptor (Homo sapiens, UniProt Q9Y5X4). It counts as functional, cell-based.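 Also: CHO-S cells with Gal4-NCOR and VP16-NR2E3 two-hybrid luciferase reporter.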
The target of the next test is Paired box protein Pax-8 (Homo sapiens, UniProt Q06710). Briefly: inhibitors of PAX8-driven TPO luciferase reporter, dose response, RMG-I cells, cherry-pick (AID 687027).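 Also: luciferase reporter driven by Pax8 target thyroperoxidase promoter measured by SteadyGlo luminescence.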 It counts as functional, cell-based.
Test [17] in a line: PAX2 cell-based inhibition, dose response, selectivity assay for PAX8 inhibitor project, plate reader, dry powder samples (AID 743048).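 Also: HEK293 cells carrying a WT1 promoter luciferase reporter driven by expressed Pax2; potency is for inhibition of Pax2 driven reporter signal.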 Format: functional.
Test [18] in a line: cytotoxicity in COV362 ovarian cancer cells, dose response, cytotoxicity control for PAX8 inhibitor project, cell-based, plate reader, dry powder, SA12 (AID 743144). Format: functional.
The nature of test [19]: IOSE-T80 ovarian epithelial cell cytotoxicity, dose response, cytotoxicity control for PAX8 inhibitor project, plate reader, dry powder samples (AID 743045). Format: functional, cell-based.
Test [20] is described as follows: NIH:OVCAR-3 ovarian cancer cell cytotoxicity, dose response, PAX8 inhibitor project, plate reader, dry powder samples (AID 743044). It counts as functional, cell-based.
Test [21] is described as follows: PAX5 activity inhibitors, dose response, selectivity assay for PAX8 inhibitor project, cell-based, plate reader, dry powder samples (AID 743047).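 Also: HEK293 cells carrying a Pax5 driven CD19 promoter luciferase reporter; potency of inhibitors that lower reporter luminescence.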 It counts as functional.
The nature of test [22]: IGROV1 ovarian cancer cell cytotoxicity, dose response, PAX8 inhibitor project, plate reader, dry powder samples (AID 743043). Format: functional, cell-based. As to conditions: IGROV-1.
The nature of test [23]: cytotoxicity in OVCAR4 cells, dose response, cytotoxicity control for PAX8 inhibitor project, cell-based, plate reader, dry powder, SA11 (AID 743150). It counts as functional. The conditions noted are these: OVCAR-4.
Test [24] can be described thus: cytotoxicity in COV434 cells, dose response, cytotoxicity control for PAX8 inhibitor project, cell-based, plate reader, dry powder, SA7 (AID 743145). Format: functional.
Test [25] can be described thus: cytotoxicity in OV-90 ovarian cancer cells, dose response, PAX8 inhibitor project, cell-based, plate reader, dry powder, SA8 (AID 743149). It counts as functional.
Test [26] in a line: non-specific cell cytotoxicity, dose response, cytotoxicity control for PAX8 inhibitor project, plate reader, dry powder samples (AID 743021). It counts as functional, cell-based.
For test [27], the target named is ADP-ribosylation factor GTPase-activating protein 1 (Rattus norvegicus, UniProt Q62848). Briefly: Fluorescence polarization-based biochemical high throughput dose response screening assay to identify inhibitors of ADP-ribosylation factor GTPase activating protein 1 (ARFGAP1). It counts as functional.
For test [28], the target named is Arf-GAP with SH3 domain, ANK repeat and PH domain-containing protein 1 (Homo sapiens, UniProt Q9ULH1). It counts as functional.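 Also: biochemical fluorescence polarization dose–response screen measuring inhibition of ASAP1; ASAP1 GAP domain stimulating GTP hydrolysis by truncated human ARF1.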
Another test deals with INS1. As to the kind of experiment: beta cell apoptosis inhibitors, cytokine rescue, dose response, luminescence, retest (AID 449756).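 Also: cell death triggered by IL-1 beta plus TNF-alpha plus IFN-gamma mixture; protective hits raise ATP signal compared with cytokine alone wells.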 Format: functional, cell-based. The conditions noted are these: Rattus norvegicus.
Test [29] deals with T3, Corticotropin-releasing factor receptor 2/Corticotropin-releasing factor-binding protein (Homo sapiens, UniProt P24387+Q13324).
T3 sequence (Q13324 whole entry): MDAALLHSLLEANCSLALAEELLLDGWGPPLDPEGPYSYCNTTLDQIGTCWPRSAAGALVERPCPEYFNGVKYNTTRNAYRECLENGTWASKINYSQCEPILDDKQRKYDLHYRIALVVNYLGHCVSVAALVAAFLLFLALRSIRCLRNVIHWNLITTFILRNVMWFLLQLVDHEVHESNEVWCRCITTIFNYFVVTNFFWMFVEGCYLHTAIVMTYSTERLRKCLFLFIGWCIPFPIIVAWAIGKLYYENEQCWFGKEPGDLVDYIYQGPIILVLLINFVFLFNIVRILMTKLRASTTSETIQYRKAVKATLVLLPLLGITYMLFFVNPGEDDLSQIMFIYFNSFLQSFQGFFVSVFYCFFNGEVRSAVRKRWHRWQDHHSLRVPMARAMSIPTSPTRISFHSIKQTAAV
T3 sequence (P24387 whole entry): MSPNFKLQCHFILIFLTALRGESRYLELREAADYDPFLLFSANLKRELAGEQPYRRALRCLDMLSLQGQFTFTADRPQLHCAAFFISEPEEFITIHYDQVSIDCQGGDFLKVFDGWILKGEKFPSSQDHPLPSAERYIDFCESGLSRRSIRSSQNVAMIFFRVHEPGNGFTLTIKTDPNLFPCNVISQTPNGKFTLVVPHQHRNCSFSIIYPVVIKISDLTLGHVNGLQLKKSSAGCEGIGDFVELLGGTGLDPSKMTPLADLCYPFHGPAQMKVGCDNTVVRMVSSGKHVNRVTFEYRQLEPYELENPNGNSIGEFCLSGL
As to the kind of experiment: Dose Response confirmation of uHTS hits for small molecule antagonists of the CRF-binding protein and CRF-R2 receptor complex. The conditions noted are these: read-out: IC50_Mean. Format: functional.

Test [30] has as its target T3, Corticotropin-releasing factor receptor 2/Corticotropin-releasing factor-binding protein. As to the kind of experiment: activators of CRF receptor 2 with binding protein – uHTS hits, confirmation (AID 602473). Format: functional. The conditions noted are these: read-out: EC50_Mean.
A short description of test [31]: CRF-BP/CRF-R2 complex antagonists, dose response, cell-based, uHTS hits, 384-well (AID 651639). Format: functional, Homo sapiens. As to conditions: read-out: IC50_Mean.

T1 sequence (Q9P0U3 whole entry, the tested form may be a part): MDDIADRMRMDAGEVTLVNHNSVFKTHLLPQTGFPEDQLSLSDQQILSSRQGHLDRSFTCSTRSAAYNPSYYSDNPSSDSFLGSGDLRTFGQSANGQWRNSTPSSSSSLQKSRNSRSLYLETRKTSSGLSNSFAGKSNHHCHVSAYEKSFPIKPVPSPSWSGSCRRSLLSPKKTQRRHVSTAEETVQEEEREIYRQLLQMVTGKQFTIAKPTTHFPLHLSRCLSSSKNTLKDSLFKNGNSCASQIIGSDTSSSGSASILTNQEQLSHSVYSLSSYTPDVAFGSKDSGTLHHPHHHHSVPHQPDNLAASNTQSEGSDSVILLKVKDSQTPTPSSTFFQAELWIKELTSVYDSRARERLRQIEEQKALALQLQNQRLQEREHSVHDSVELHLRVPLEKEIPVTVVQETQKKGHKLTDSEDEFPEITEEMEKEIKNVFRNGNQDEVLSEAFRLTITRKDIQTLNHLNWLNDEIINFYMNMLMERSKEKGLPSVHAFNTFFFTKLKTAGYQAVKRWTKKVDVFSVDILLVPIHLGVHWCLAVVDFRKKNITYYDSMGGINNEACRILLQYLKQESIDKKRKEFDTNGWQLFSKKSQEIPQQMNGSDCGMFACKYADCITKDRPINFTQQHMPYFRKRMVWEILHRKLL
Paired box protein Pax-8, sequence (Q06710 whole entry): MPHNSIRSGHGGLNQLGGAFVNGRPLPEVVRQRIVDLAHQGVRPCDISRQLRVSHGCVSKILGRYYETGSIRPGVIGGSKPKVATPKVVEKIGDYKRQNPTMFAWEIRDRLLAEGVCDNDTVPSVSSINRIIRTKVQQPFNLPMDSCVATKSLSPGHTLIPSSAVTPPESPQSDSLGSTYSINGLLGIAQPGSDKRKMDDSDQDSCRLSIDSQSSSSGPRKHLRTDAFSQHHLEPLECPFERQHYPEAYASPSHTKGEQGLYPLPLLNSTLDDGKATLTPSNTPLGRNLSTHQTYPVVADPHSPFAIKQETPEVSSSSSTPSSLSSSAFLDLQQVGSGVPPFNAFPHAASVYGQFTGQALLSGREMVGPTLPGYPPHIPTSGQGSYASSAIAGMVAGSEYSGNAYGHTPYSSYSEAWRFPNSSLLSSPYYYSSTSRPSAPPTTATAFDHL
Arf-GAP with SH3 domain, ANK repeat and PH domain-containing protein 1, sequence (Q9ULH1 whole entry, the tested form may be a part): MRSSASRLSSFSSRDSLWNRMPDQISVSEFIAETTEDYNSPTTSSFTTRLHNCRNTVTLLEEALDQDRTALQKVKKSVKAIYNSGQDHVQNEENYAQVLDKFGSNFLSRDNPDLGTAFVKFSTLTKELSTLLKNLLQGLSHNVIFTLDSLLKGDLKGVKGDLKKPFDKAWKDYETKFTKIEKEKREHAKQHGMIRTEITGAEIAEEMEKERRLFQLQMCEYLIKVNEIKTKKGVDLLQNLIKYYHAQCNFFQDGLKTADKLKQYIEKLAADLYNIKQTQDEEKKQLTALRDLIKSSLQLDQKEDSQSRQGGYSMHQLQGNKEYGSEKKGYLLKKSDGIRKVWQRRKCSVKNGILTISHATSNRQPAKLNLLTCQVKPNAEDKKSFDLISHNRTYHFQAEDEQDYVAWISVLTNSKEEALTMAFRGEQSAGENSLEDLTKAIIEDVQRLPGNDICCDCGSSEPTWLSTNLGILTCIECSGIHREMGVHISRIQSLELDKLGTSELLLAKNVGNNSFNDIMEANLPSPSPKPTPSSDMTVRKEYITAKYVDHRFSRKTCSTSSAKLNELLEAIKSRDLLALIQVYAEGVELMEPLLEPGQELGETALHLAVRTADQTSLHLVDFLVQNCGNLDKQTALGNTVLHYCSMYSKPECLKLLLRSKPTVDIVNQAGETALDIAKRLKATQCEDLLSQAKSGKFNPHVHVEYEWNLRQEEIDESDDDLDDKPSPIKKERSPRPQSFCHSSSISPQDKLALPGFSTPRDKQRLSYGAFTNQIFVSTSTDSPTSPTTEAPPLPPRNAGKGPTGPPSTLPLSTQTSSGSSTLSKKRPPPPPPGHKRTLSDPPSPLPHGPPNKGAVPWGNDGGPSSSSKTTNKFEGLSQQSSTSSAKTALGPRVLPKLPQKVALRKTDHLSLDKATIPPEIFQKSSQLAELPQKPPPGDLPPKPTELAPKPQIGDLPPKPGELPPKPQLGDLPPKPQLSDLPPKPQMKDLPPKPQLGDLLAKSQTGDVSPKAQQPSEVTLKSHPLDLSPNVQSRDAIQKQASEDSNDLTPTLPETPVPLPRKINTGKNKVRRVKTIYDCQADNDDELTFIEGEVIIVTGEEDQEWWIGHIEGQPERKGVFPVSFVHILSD
ADP-ribosylation factor GTPase-activating protein 1, sequence (Q62848 whole entry, the tested form may be a part): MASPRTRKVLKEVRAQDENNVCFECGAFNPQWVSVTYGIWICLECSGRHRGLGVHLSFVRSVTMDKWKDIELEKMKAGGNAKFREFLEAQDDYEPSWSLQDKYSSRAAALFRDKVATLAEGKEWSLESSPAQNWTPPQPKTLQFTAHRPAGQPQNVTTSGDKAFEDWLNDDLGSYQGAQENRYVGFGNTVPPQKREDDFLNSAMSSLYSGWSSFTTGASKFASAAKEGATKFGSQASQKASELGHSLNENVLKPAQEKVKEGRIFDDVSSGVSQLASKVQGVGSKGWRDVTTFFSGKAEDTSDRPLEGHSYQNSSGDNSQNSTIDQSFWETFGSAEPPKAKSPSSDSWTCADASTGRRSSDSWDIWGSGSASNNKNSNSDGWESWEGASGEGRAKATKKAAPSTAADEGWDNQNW
Photoreceptor-specific nuclear receptor, sequence (Q9Y5X4 whole entry, the tested form may be a part): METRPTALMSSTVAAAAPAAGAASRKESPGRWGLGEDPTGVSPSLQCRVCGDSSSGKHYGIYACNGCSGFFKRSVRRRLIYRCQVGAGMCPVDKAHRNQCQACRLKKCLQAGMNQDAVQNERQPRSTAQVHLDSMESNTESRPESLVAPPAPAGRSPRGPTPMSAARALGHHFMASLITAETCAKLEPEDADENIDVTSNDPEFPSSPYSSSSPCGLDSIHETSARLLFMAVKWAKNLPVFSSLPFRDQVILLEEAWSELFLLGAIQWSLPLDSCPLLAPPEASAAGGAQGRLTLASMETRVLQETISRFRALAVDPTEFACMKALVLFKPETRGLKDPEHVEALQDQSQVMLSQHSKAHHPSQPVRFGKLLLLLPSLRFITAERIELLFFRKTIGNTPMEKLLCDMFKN

Take `CCOc1cc(CNCCc2ccc(S(N)(=O)=O)cc2)ccc1OCc1ccccc1`: the concentration at half-maximal activity (AC50) in test [1] was 2.44 µM (active); in [2] it was > 70 µM (inactive); in test [3], 25.5 µM (active); in test [4], 3.56 µM (active); in test [5], 31.9 µM (active).
Take `COc1cc(NC2=Nc3cccc4cccc2c34)cc(OC)c1OC`: the IC50 in test [6] was 68.8 µM (inactive); in test [7] it was 19.9 µM (active).
For the compound `O=C(Nc1nc2cc3c(cc2s1)OCCO3)c1cccs1`, the half-maximal activity concentration (AC50) in [8] is 28 µM (active); in test [9], > 52 µM (inactive); in test [10], 2.01 µM (active); in [11], 26 µM (active); in test [12], 3.84 µM (active); in [13], > 52 µM (inactive).
On to `O=C(OCCNc1nc(-c2ccccc2)nc2ccccc12)c1ccncc1`, for which the figures for the IC50 in test [14] and in [15] were 24.6 µM (inactive) and 11.8 µM (active), respectively.
For the compound `FC(F)Sc1ccc(NC(=S)N2CCN(c3ccccn3)CC2)cc1`, the IC50 in test [16] was 2.52 µM (active).
Turning to `Cc1ccccc1CNC(=O)C1CCCN(c2nnc(C)c3c(C)n(-c4ccccc4)nc23)C1` (stereo not drawn), the AC50 at Paired box protein Pax-8 was 5.95 µM (active); in test [17] it was 4.18 µM (active); in test [18], 42.3 µM (active); in test [19] it was 91.9 µM (active); in [20] it was 42.8 µM (active); in [21] it was 24 µM (active). The AC50 in [22] was 32.4 µM (active); in [23], 61.3 µM (active); in test [24] it was 98.3 µM (active); in test [25], 9.9 µM (active); in [26] it was < 29.5 µM (active).
On to `Cc1ccc2nc(SCC(=O)N3CCC(Cc4ccccc4)CC3)nc(=O)n2c1`, for which the IC50 in test [27] was 26.9 µM (inactive); in [28] it was 32.7 µM (inactive).
`O=S(=O)(Nc1nc2ccccc2s1)c1ccc(Cl)s1`: in the test with INS1, the concentration at half-maximal activity (AC50) is 31.8 µM (active). Further, the results for the IC50 in test [29] and in test [31] were 6.02 µM (active) and 8.22 µM (active), respectively. Besides, in test [30], the EC50 is > 53 µM (inactive).
